Test results from patent US8859621B2, “Pharmaceutical formulations of modafinil” (Cephalon, Inc., priority 2002, dated 2014).

Assays:
[1] = human blood plasma concentration curve of modafinil; assay type: in vivo
Method: FIG. 1 represents a human blood plasma concentration curve of modafinil after an initial dose of 100 mg of modafinil followed 4 hours later by a 200 mg dose of modafinil.
FIG. 2 represents a human blood plasma concentration curve of modafinil after an initial dose of 200 mg of modafinil followed 4 hours later by a 100 mg dose of modafinil.
FIG. 3 represents a human blood plasma concentration curve of modafinil after a single dose of 300 mg of modafinil.
FIG. 4 represents a human blood plasma concentration curve of modafinil after a single dose of 100 mg of modafinil.

[2] = test system: children with moderate to severe ADHD; assay: Example 1: 4-week placebo-controlled study of modafinil in children with ADHD; assay type: in vivo, human; details: for ADHD symptoms, primary outcome measure (teacher rated ADHD Rating Scale-IV): vs placebo
Method: A group of 248 children (average age: 9 years, average weight: 35.5 kilograms) were studied to determine the effect of modafinil on ADHD.
After a 1 week washout period, children with moderate to severe ADHD received 4 weeks of treatment with placebo or modafinil in split morning/midday dosages of 100/200 mg, 200/100 mg, a single 300 mg dose, and 200/200 mg (400 mg total). Randomization called for equal distribution of the children by weight, except for the 200/200 mg dose group, which contained only children having a weight greater than or equal to 30 kg. The primary efficacy measure was the teacher rated ADHD Rating Scale-IV.

ADHD patients = assay: Example 2: 2-week fixed-dose study of 340 mg and 425 mg in children with ADHD; assay type: in vivo, human; details: 340 mg (<30 kg) or 425 mg (>=30 kg) single dose per day, 2 weeks, baseline score 46.3
Method: Safety and efficacy of the fixed doses of 340-mg and 425-mg were evaluated following a 2-week dosing period (1-week of titration and 1-week at steady state). The 340-mg dose was administered to children weighing <30 kg, and the 425-mg dose was administered to children weighing ≧30 kg.
The 24 children enrolled in this study were predominately male (17M:7F) and predominately white (13W:9B:2Other). The average age (9.0 yrs), weight (32.9 kg) and height (133.7 cm) were similar to those seen in previous ADHD trials in children. The children <30 and ≧30 kg were approximately equaled divided. The average Attention Deficit Hyperactivity Disorder Rating Scale (ADHD-RS) total score at baseline was 46.3.

NC(=O)C[S+]([O-])C(c1ccccc1)c1ccccc1 (centres unmarked) [modafinil, 2-[(diphenylmethyl)sulfinyl]acetamide]
blood concentrations of modafinil, amount less than predicted ([1]; single dose of 300 mg vs extrapolation of 100 mg unit dose data, FIG. 3): 20-30%
time post administration at which the blood level of modafinil begins to decrease ([1]; single dose of 300 mg, FIG. 3): about 2 hours
time post administration at which the blood plasma concentration of modafinil begins to decrease ([1]; split dose 100 mg then 200 mg or 200 mg then 100 mg 4 hours later, FIGS. 1 and 2): about two
adverse event profile ([2]; 400 mg of modafinil (200/200 mg) vs the other doses): higher adverse event profile than the other doses
safety and tolerability ([2]; children, 4 weeks of treatment, 300 to 400 mg total daily): safe and generally well tolerated
ADHD symptoms, primary outcome measure (teacher rated ADHD Rating Scale-IV) ([2]; children, single 300 mg once daily dose, 4 weeks of treatment): significantly improved ADHD symptoms
ADHD symptoms, primary outcome measure (teacher rated ADHD Rating Scale-IV) ([2]; children, split morning/midday dose 200/100 mg, 4 weeks of treatment): significantly improved ADHD symptoms
improvement of ADHD-RS total score from baseline (ADHD patients): ~70%
